Values quoted from earlier work as cited in patent US20230111350A1, “Opthalmic Compositions for Treating Coronaviruses” (priority 2020, published 2023).

What was measured:
[1] = systemic administration; dependent on daily dose by weight
[2] = relative to chloroquine
SARS-CoV-2 = details: relative to chloroquine

Structure (SMILES): CCN(CC)CCCC(C)Nc1ccnc2cc(Cl)ccc12 (stereo not shown) [chloroquine]
- toxicity in ARPE-19 cells (ARPE-19): vacuole formation and cell death

Structure (SMILES): Oc1c(I)cc(Cl)c2cccnc12 [clioquinol]
- effect on chloroquine-associated toxicity in ARPE-19 cells (ARPE-19; co-treatment with chloroquine, zinc-dependent, by reversing autophagy arrest): attenuated the chloroquine-associated toxicity

Structure (SMILES): CCN(CCO)CCCC(C)Nc1ccnc2cc(Cl)ccc12 (stereo not shown) [hydroxychloroquine]
- percentage of patients testing positive for COVID-19 (COVID-19; after 6 days, 600 mg/day oral, untreated 90%): 25%
- viral load (COVID-19; oral administration): strong reduction in viral load
- prevalence of retinal toxicity [1]: ≤ 7.5%
- toxicity profile [2]: reduced toxicity profile
- potency at inhibiting SARS-CoV-2 in vitro (SARS-CoV-2): more potent than chloroquine
